± gives the expanded uncertainty stated by the source.
Assay: xn = mol fraction of the nth substance listed
Details: 273.15 K, Fluid (supercritical or subcritical phases), x1 = 0.97; for mass density: Vibrating tube method; for speed of sound: Frequency=5 MHz, Pulse-echo method

O=C=O [carbon dioxide] + CO
Details	mass density [kg/m3]	speed of sound [m/s]
5000 kPa	943.89 ± 0.8	–
5025 kPa	944.05 ± 0.8	–
5050 kPa	944.22 ± 0.8	–
5075 kPa	944.38 ± 0.8	–
5100 kPa	944.55 ± 0.8	–
5125 kPa	944.71 ± 0.8	–
5150 kPa	944.88 ± 0.8	–
5175 kPa	945.05 ± 0.8	–
5200 kPa	945.28 ± 0.8	–
5225 kPa	945.45 ± 0.8	–
5250 kPa	945.61 ± 0.8	–
5275 kPa	945.83 ± 0.8	–
5300 kPa	945.95 ± 0.8	–
5325 kPa	946.18 ± 0.8	–
5350 kPa	946.35 ± 0.8	–
5375 kPa	946.51 ± 0.8	–
5400 kPa	946.68 ± 0.8	–
5425 kPa	946.88 ± 0.8	–
5450 kPa	947.02 ± 0.8	–
5475 kPa	947.19 ± 0.8	–
5500 kPa	947.38 ± 0.8	–
5525 kPa	947.55 ± 0.8	–
5550 kPa	947.7 ± 0.8	–
5575 kPa	947.84 ± 0.8	–
5600 kPa	948 ± 0.8	–
5625 kPa	948.22 ± 0.8	–
5650 kPa	948.35 ± 0.8	–
5675 kPa	948.48 ± 0.8	–
5700 kPa	948.64 ± 0.8	–
5725 kPa	948.81 ± 0.8	–
5750 kPa	948.97 ± 0.8	–
5775 kPa	949.13 ± 0.8	–
5800 kPa	949.3 ± 0.8	–
5825 kPa	949.41 ± 0.8	–
5850 kPa	949.62 ± 0.8	–
5875 kPa	949.74 ± 0.8	–
5900 kPa	949.87 ± 0.8	–
5925 kPa	950.03 ± 0.8	–
5950 kPa	950.2 ± 0.8	–
5975 kPa	950.35 ± 0.8	–
6000 kPa	950.47 ± 0.8	–
6020 kPa	–	581.6 ± 1
6025 kPa	950.61 ± 0.8	–
6040 kPa	–	581 ± 1
6050 kPa	950.77 ± 0.8	–
6075 kPa	950.93 ± 0.8	–
6100 kPa	951.1 ± 0.8	–
6125 kPa	951.26 ± 0.8	–
6150 kPa	951.39 ± 0.8	–
6175 kPa	951.59 ± 0.8	–
6200 kPa	951.67 ± 0.8	–
6225 kPa	951.86 ± 0.8	–
6250 kPa	952.08 ± 0.8	–
6275 kPa	952.24 ± 0.8	–
6300 kPa	952.33 ± 0.8	–
6325 kPa	952.49 ± 0.8	–
6350 kPa	952.65 ± 0.8	–
6375 kPa	952.82 ± 0.8	–
6400 kPa	952.98 ± 0.8	–
6425 kPa	953.14 ± 0.8	–
6450 kPa	953.31 ± 0.8	–

Reference: the NIST ThermoML archive (doi:10.1016/j.jct.2016.03.026)
